Results taken from patent US10792272B2, “Methods for treatment of Clostridium difficile infections” (priority 2016, dated 2020).
In brackets after ≈: the same amount, converted by molar mass.

Key:
[1] = test system: C. difficile 4118 (CD4118, ATCC BAA-1870, BI/NAP1/027); assay: MIC by broth microdilution against C. difficile 4118; assay type: cell-based, Clostridium difficile; conditions: Table 1; strain 4118; 20-24 h, 37° C.
[2] = test system: C. difficile strains 630 (CD630) and 4118 (CD4118); assay: MIC / growth inhibition against C. difficile, covering both strains; assay type: cell-based, Clostridium difficile; conditions: CD630 and CD4118
[3] = test system: C. difficile 630 (CD630, ATCC BAA-1382); assay: MIC by broth microdilution against C. difficile 630; assay type: cell-based, Clostridium difficile; conditions: Table 1; strain 630; 20-24 h, 37° C.
[4] = test system: C. sporogenes ATCC 15579; assay: microbe, parasite or virus in culture; assay type: cell-based, Clostridium sporogenes
[5] = test system: S. epidermidis 1457; assay: MIC against aerobic bacteria; assay type: cell-based; conditions: aerobic
[6] = test system: P. distasonis ATCC 8503; assay: MIC against anaerobic bacteria; assay type: cell-based, Parabacteroides distasonis; conditions: anaerobic
[7] = test system: panel of aerobic and anaerobic organisms; assay type: cell-based
[8] = test system: C. clostridioforme ATCC 25537; assay: MIC against anaerobic bacteria; assay type: cell-based, Clostridium clostridioforme; conditions: anaerobic
[9] = test system: B. subtilis ATCC 6051; assay: MIC against aerobic bacteria; assay type: cell-based, Bacillus subtilis; conditions: aerobic
[10] = test system: S. aureus RN4220; assay: MIC against aerobic bacteria; assay type: cell-based; conditions: aerobic
[11] = test system: P. nigrescens ATCC 33563; assay: MIC against anaerobic bacteria; assay type: cell-based, Prevotella nigrescens; conditions: anaerobic
[12] = test system: P. aeruginosa PAO1; assay: MIC against aerobic bacteria; assay type: cell-based, Pseudomonas aeruginosa; conditions: aerobic
[13] = test system: A. baumannii M2; assay: MIC against aerobic bacteria; assay type: cell-based; conditions: aerobic
[14] = test system: B. thetaiotaomicron ATCC 29148; assay: microbe, parasite or virus in culture; assay type: cell-based; conditions: anaerobic

| Structure (SMILES) | MIC C. difficile 4118 [1] | growth inhibitory activity against CD630 and CD4118 (in words) [2] | MIC C. difficile 630 [3] | MIC C. sporogenes ATCC 15579 [4] | MIC S. epidermidis 1457 [5] | MIC P. distasonis ATCC 8503 [6] | antibacterial spectrum (in words) [7] | MIC C. clostridioforme ATCC 25537 [8] | MIC B. subtilis ATCC 6051 [9] | MIC S. aureus RN4220 [10] | MIC P. nigrescens ATCC 33563 [11] | MIC P. aeruginosa PAO1 [12] | MIC A. baumannii M2 [13] | MIC B. thetaiotaomicron ATCC 29148 [14] |
| --- | --- | --- | --- | --- | --- | --- | --- | --- | --- | --- | --- | --- | --- | --- |
| O=C(Nc1ccc(Oc2ccccc2)cc1)c1cc(I)cc(I)c1O [Compound 5a] | 1 µg/mL (≈ 1.79 µM) | high in vitro potency | 0.5 µg/mL (≈ 0.897 µM) |  |  |  |  |  |  |  |  |  |  |  |
| COc1c(I)cc(I)cc1C(=O)Nc1ccc(Oc2ccccc2)cc1 [Compound 5b] | >32 µg/mL | inactive | >32 µg/mL |  |  |  |  |  |  |  |  |  |  |  |
| O=C(Nc1ccc(Oc2ccccc2)cc1)c1cc(I)cc(I)c1 [Compound 5c] | >32 µg/mL | inactive | >32 µg/mL |  |  |  |  |  |  |  |  |  |  |  |
| CN(C(=O)c1cc(I)cc(I)c1O)c1ccc(Oc2ccccc2)cc1 [Compound 5d] | >32 µg/mL | inactive | >32 µg/mL |  |  |  |  |  |  |  |  |  |  |  |
| O=C(Nc1ccc(Oc2ccc(F)cc2)cc1)c1cc(I)cc(I)c1O [Compound 5e] | 0.13 µg/mL (≈ 0.226 µM) | high in vitro potency | 0.13 µg/mL (≈ 0.226 µM) |  |  |  |  |  |  |  |  |  |  |  |
| Cc1ccc(Oc2ccc(NC(=O)c3cc(I)cc(I)c3O)cc2)cc1 [Compound 5f] | 0.25 µg/mL (≈ 0.438 µM) | high in vitro potency | 0.13 µg/mL (≈ 0.228 µM) |  |  |  |  |  |  |  |  |  |  |  |
| O=C(Nc1ccc(Oc2ccc(Cl)cc2)cc1)c1cc(I)cc(I)c1O [Compound 5g] | 0.25 µg/mL (≈ 0.423 µM) | high in vitro potency | 0.13 µg/mL (≈ 0.22 µM) |  |  |  |  |  |  |  |  |  |  |  |
| COc1c(I)cc(I)cc1C(=O)Nc1ccc(Oc2ccc(Cl)cc2)cc1 [Compound 5h] | >32 µg/mL | inactive | >32 µg/mL |  |  |  |  |  |  |  |  |  |  |  |
| O=C(Nc1ccc(Oc2ccc(Cl)cc2)cc1)c1cc(I)cc(I)c1 [Compound 5i] | >32 µg/mL | inactive | >32 µg/mL | >32 µg/mL | >32 µg/mL | >32 µg/mL | lacked antibacterial activity | >32 µg/mL | >32 µg/mL | >32 µg/mL | >32 µg/mL | >32 µg/mL | >32 µg/mL | >32 µg/mL |
| O=C(Nc1ccc2ccccc2c1)c1cc(I)cc(I)c1O [Compound 6a] | 0.5 µg/mL (≈ 0.971 µM) | high in vitro potency | 0.5 µg/mL (≈ 0.971 µM) | 8 µg/mL (≈ 15.5 µM) | 0.06 µg/mL (≈ 0.116 µM) | 16 µg/mL (≈ 31.1 µM) |  | 4 µg/mL (≈ 7.77 µM) | 0.06 µg/mL (≈ 0.116 µM) | 0.25 µg/mL (≈ 0.485 µM) | 8 µg/mL (≈ 15.5 µM) | >32 µg/mL | >32 µg/mL | >32 µg/mL |
